Each structure is given as a SMILES string.

In the case of `COc1cc(CC(=O)Nc2ccc(C3(CC(=O)O)CCCC3)cc2)ccc1NC(=O)Nc1ccccc1C` [Example 2, [1-{4-[2-[3-Methoxy-4-[3-o-tolyl-ureido]-phenyl]-acetylamino]-phenyl}-cyclopentyl]-acetic acid], the melting point is 223 to 226 °C.

Compound `Cc1ccccc1Nc1nc2ccc(CC(=O)Nc3ccc(C4(CC(=O)O)CCCC4)cc3)cc2o1` [Example 1, (1-{4-[2-(2-o-Tolylamino-benzoxazol-6-yl)-acetylamino]-phenyl}-cyclopentyl)-acetic acid] registered a melting point of 123 to 126 °C.

The melting point is the temperature of the solid-liquid transition.

Source of the values: US7166616B2, “Substituted alkanoic acids” (Aventis Pharma Limited, priority 2000, dated 2007).
